Measured values: BindingDB's records for doi:10.1021/acs.jmedchem.6b00594 (Duquesne University, 2016)
pIC50: −log10 of the molar value.

Assays:
[1] = Inhibition of human RFC expressed in Chinese hamster PC43-10 cells assessed as antiproliferative activity measured as reduction in cell viability after 96 hrs by Cell-Titer Blue fluorescence analysis
[2] = Inhibition of human PCFT expressed in Chinese hamster R2/PCFT4 cells assessed as antiproliferative activity measured as reduction in cell viability after 96 hrs by Cell-Titer Blue fluorescence analysis
[3] = Inhibition of human FR-beta receptor expressed in Chinese hamster D4 cells assessed as antiproliferative activity measured as reduction in cell viability after 96 hrs by Cell-Titer Blue fluorescence analysis
[4] = Inhibition of human FR-alpha receptor expressed in Chinese hamster RT16 cells assessed as antiproliferative activity measured as reduction in cell viability after 96 hrs by Cell-Titer Blue fluorescence analysis

SMILES | pIC50 [1] | pIC50 [2] | pIC50 [3] | pIC50 [4]
Nc1nc2[nH]c(CCN(C(=O)C(F)(F)F)c3ccc(C(=O)N[C@@H](CCC(=O)O)C(=O)O)cc3)cc2c(=O)[nH]1 | 6.11 | 6.96 | 9.35 | 8.96
Nc1nc2[nH]c(CCOc3ccc(C(=O)N[C@@H](CCC(=O)O)C(=O)O)cc3)cc2c(=O)[nH]1 | 6.19 | 7.24 | 8.59 | 8.72
CC(=O)N(CCc1cc2c(=O)[nH]c(N)nc2[nH]1)c1ccc(C(=O)N[C@@H](CCC(=O)O)C(=O)O)cc1 | 6.09 | 7.09 | 8.80 | 8.31
Nc1nc2[nH]c(CCSc3ccc(C(=O)N[C@@H](CCC(=O)O)C(=O)O)cc3)cc2c(=O)[nH]1 | < 6.00 | 6.57 | 9.47 | 9.29
Nc1nc2[nH]c(CCN(C=O)c3ccc(C(=O)N[C@@H](CCC(=O)O)C(=O)O)cc3)cc2c(=O)[nH]1 | 6.19 | 7.05 | 9.28 | 8.52
Nc1nc2[nH]c(CCNc3ccc(C(=O)N[C@@H](CCC(=O)O)C(=O)O)cc3)cc2c(=O)[nH]1 | 6.29 | 7.06 | 9.21 | 8.52
